The text below walks through data of article PMC11020070, “Discovery of Protease-Activated Receptor 4 (PAR4)-Tethered Ligand Antagonists Using Ultralarge Virtual Screening” (ACS Pharmacology & Translational Science, 2024).

Molecules are shown by their SMILES.

One assay concerns the target T1, mouse PAR4 (Mus musculus, UniProt O88634).
T1 construct: washed mouse platelets were prepared by collecting cardiac puncture blood; endogenous in cells; host or cells: washed mouse platelets (cardiac puncture blood)
T1 sequence (O88634 17-396): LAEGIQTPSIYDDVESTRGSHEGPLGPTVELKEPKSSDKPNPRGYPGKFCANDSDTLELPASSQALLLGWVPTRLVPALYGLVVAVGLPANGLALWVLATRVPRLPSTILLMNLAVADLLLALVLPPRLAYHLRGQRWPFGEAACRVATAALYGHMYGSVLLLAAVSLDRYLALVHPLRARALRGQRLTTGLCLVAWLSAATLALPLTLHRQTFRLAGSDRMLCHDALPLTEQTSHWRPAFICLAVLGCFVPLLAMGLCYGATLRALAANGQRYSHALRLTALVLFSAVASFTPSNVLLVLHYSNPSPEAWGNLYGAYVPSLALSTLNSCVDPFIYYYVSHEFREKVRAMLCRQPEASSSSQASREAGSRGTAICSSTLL
In words: Mouse platelet activity assay, flow cytometry, γ-thrombin activation. The conditions noted are these: Table 4 summary; read-out: mouse PAR4 IC50. The class given is cell-based. As for the experimental part: For mouse PAR4 activity, washed mouse platelets were prepared by collecting cardiac puncture blood with 200 μL of 20 U/mL heparin. Following centrifugation at 1000 rpm for 15 min, plasma and buffy coat were collected into a separate tube and spiked with apyrase and PGE1. After centrifuging at 1000 rpm for 8 min, the platelet-rich plasma was transferred to another tube and centrifuged at 2200 rpm for 10 min to pellet the platelets. Platelets were resuspended in TBB + apyrase + PGE1. Platelets were counted and diluted in TBB to a final concentration of 2 × 10^7 platelets/mL. 50 μL of platelets were aliquoted to each tube preincubated with 50 μL of TBB with antibodies for mouse GPIIbIIIa and P-selectin (Emfret, Eibelstadt Germany) and either test compound antagonist or DMSO control. Platelets were activated with 316 nM γ-thrombin for 30 min. Samples were then fixed with 100 μL of 2% paraformaldehyde for 20 min and diluted with 300 μL of PBS. Flow cytometry counts are measured as for human platelets on a three-laser BD LSRFortessa (Becton Dickinson) and analyzed with FloJo software.
Regarding `Cc1cc(C(=O)Nc2n[nH]c(OC(F)F)n2)nn1-c1ccccc1` [Compound 9], the IC50 came to 1450 nM.
Turning to `O=C(Nc1nc[nH]n1)c1nn(-c2ccccc2)c2c1CCC2` [Compound 17], the IC50 was found to be 3330 nM.
For the compound `O=C(Nc1n[nH]c(-c2ccc(F)cc2F)n1)c1nn(-c2ccccc2)c2c1CCCC2` [Compound 31], the IC50 worked out at 367 nM.
The same measure, in the same setting: under `COc1cccc(-c2nc(NC(=O)c3nn(-c4ccccc4)c4c3CCCC4)n[nH]2)c1` [Compound 32] stands 269 nM.

Still in this assay, the particulars now being: mouse platelets, 316 nM γ-thrombin, GPIIbIIIa (JonA); read-out: Mouse Platelets JonA IC50.
On to `Cc1cc(C(=O)Nc2n[nH]c(OC(F)F)n2)nn1-c1ccccc1` [Compound 9], for which the IC50 was found to be 1450 nM.
In the case of `Cn1nc(C(=O)Nc2n[nH]c(-c3c(F)cccc3F)n2)cc1C1CC1` [Compound 12], the IC50 is 401 nM.
For `O=C(Nc1nc[nH]n1)c1nn(-c2ccccc2)c2c1CCC2` [Compound 17], the IC50 was 3330 nM.
Consider `O=C(Nc1n[nH]c(-c2ccc(F)cc2F)n1)c1nn(-c2ccccc2)c2c1CCCC2` [Compound 31], for which the IC50 was 367 nM.
Take `COc1cccc(-c2nc(NC(=O)c3nn(-c4ccccc4)c4c3CCCC4)n[nH]2)c1` [Compound 32]: the IC50 came out at 269 nM.

The same assay, now with this note: mouse platelets, 316 nM γ-thrombin, P-selectin; read-out: Mouse Platelets P-Sel IC50.
As to `Cc1cc(C(=O)Nc2n[nH]c(OC(F)F)n2)nn1-c1ccccc1` [Compound 9], the IC50 was 1450 nM.
Still for that read-out and setting: the value for `Cn1nc(C(=O)Nc2n[nH]c(-c3c(F)cccc3F)n2)cc1C1CC1` [Compound 12] was 370 nM; that for `O=C(Nc1nc[nH]n1)c1nn(-c2ccccc2)c2c1CCC2` [Compound 17] was 4020 nM.
For `O=C(Nc1n[nH]c(-c2ccc(F)cc2F)n1)c1nn(-c2ccccc2)c2c1CCCC2` [Compound 31], the IC50 stood at 330 nM.
With `COc1cccc(-c2nc(NC(=O)c3nn(-c4ccccc4)c4c3CCCC4)n[nH]2)c1` [Compound 32], the IC50 is 298 nM.

The target of the next assay is T2, PAR4 (Homo sapiens, UniProt Q96RI0).
T2 sequence (Q96RI0 18-385): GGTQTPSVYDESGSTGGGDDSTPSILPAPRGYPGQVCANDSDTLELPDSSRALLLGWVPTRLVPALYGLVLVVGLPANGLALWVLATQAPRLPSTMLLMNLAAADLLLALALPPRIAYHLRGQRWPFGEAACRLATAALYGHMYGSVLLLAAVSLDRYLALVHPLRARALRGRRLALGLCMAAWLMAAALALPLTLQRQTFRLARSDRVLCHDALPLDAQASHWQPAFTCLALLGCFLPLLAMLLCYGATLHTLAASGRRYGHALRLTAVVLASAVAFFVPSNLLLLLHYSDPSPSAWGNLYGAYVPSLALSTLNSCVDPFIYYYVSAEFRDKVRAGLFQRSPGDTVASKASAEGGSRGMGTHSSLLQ
In words: Human platelet activity assay, flow cytometry, γ-thrombin activation. The class given is cell-based. More on the design: endogenous in cells; host or cells: washed human platelets from healthy volunteers. The note with it: 10 μM compound, 100 nM γ-thrombin, human platelets; read-out: inhibition of platelet activation against γ-thrombin. As for the experimental part: To test the antagonistic effect of the compounds on PAR4, a flow cytometry assay of human platelets was employed. Each compound was screened at 10 μM in human platelets using flow cytometry for GPIIbIIIa activation (PAC1) and P-selectin (CD62p) expression as previously described.[4] Activation of GPIIbIIIa allows interaction with divalent fibrinogen or multivalent von Willebrand factor, leading to platelet aggregation.[41] PAR4 stimulation also triggers α-granule secretion containing P-selectin.[5] […] Platelets were treated with each test compound or vehicle control DMSO before activating with γ-thrombin (100 nM) or PAR4 agonist peptide mimetic (200 μM, “PAR4-AP” AYPGKF) for 30 min. γ-thrombin activates PAR4 but not PAR1.[42]
Activation of washed human platelets was monitored by flow cytometry for the detection of PAC1 (GPIIbIIIa activation) and CD62p (P-selectin expression) binding as previously described.[4] Human platelets were obtained from healthy volunteers. The Vanderbilt University Internal Review Board approved these studies. Informed consent was obtained from all individuals prior to the blood draw. 10 mL of whole blood was collected into 0.32% Na citrate. Platelet-rich plasma was collected after room-temperature centrifugation at 1100 rpm for 15 min on a Thermo Forma 400 centrifuge (Thermo Fisher, Waltham, MA). 1/10 volume of acid citrate dextrose (ACD) buffer was added to the collected supernatant and incubated for 10 min. After centrifugation at 2400 rpm for 10 min, the platelet pellet was resuspended in 1 mL Tyrode’s buffer (“TBB”: 15 mM HEPES, 0.33 mM NaH2PO4, pH 6.4, 138 mM NaCl, 2.7 mM KCl, 1 mM MgCl2, 5.5 mM dextrose, 0.1% bovine serum albumin). Platelets were collected, counted on a Z1 Coulter Particle Counter (Beckman Coulter, Brea, CA), and diluted in TBB to 1.5 × 10^7 platelets/mL. 60 uL of platelets were aliquoted to each tube and preincubated with 40 μL of TBB with antibodies PAC1 FITC (Becton Dickinson, Franklin Lakes NJ) and P-selectin PE (Becton Dickinson) and either test compound antagonist or DMSO vehicle control for 20 min. Platelets were then activated with 100 nM γ-thrombin or other agonists for 30 min. Samples were then fixed by adding 100 μL of 2% paraformaldehyde. After 30 min, samples were diluted by adding 300 μL of phosphate-buffered saline (PBS) and stored at 4C. Data were collected on a three-laser BD LSRFortessa (Becton Dickinson) and analyzed with FlowJo software (FlowJo LLC, Ashland, OR). The mean fluorescence intensity (geometric) of PE and FITC was determined from 30,000 events after compensation correction. Data were normalized to vehicle (DMSO) controls.
Compounds were screened for inhibition activity against human PAR4 using 100 nM γ-thrombin or 200 μM PAR4-AP in a single-point assay (10 μM test compound).
(In general: A flow cytometer gives signals particle by particle.)
A word on the inhibition: it is the change of the read-out against control, counted positive when it falls. As to `Cc1nc(NC(=O)c2cc(-c3ccccc3)n(-c3ccccc3)n2)n[nH]1` [Compound 7], the inhibition at 10 µM is around 50%.

Staying with this assay, now noted: Table 4 summary; read-out: human PAR4 IC50.
With `Cc1cc(C(=O)Nc2n[nH]c(OC(F)F)n2)nn1-c1ccccc1` [Compound 9], the IC50 turned out to be 583 nM.
`Cn1nc(C(=O)Nc2n[nH]c(-c3c(F)cccc3F)n2)cc1C1CC1` [Compound 12]: the IC50 was 134 nM.
Consider `O=C(Nc1nc[nH]n1)c1nn(-c2ccccc2)c2c1CCC2` [Compound 17], for which the IC50 was determined as 502 nM.
Same read-out and setting: the value for `COc1cccc(-c2nc(NC(=O)c3nn(-c4ccccc4)c4c3CCCC4)n[nH]2)c1` [Compound 32] was 120 nM.

The assay is the same for the next values; noted with them: human platelets, 100 nM γ-thrombin, GPIIbIIIa activation (PAC1); read-out: Human Platelets PAC1 IC50.
For the compound `Cc1nc(NC(=O)c2cc(-c3ccccc3)n(-c3ccccc3)n2)n[nH]1` [Compound 7], the IC50 worked out at 2280 nM.
For the compound `Cc1cc(C(=O)Nc2n[nH]c(OC(F)F)n2)nn1-c1ccccc1` [Compound 9], the IC50 is 583 nM.
`Cn1nc(C(=O)Nc2n[nH]c(-c3c(F)cccc3F)n2)cc1C1CC1` [Compound 12]: the IC50 was found to be 134 nM.
`O=C(Nc1nc[nH]n1)c1nn(-c2ccccc2)c2c1CCC2` [Compound 17]: the IC50 stood at 502 nM.
Same read-out and setting: the value for `O=C(Nc1n[nH]c(-c2ccc(F)cc2F)n1)c1nn(-c2ccccc2)c2c1CCCC2` [Compound 31] was 117 nM; that for `COc1cccc(-c2nc(NC(=O)c3nn(-c4ccccc4)c4c3CCCC4)n[nH]2)c1` [Compound 32] was 120 nM.

The assay is the same for the next values; noted with them: human platelets, 100 nM γ-thrombin, P-selectin (CD62p); read-out: Human Platelets P-Sel IC50.
For `Cc1nc(NC(=O)c2cc(-c3ccccc3)n(-c3ccccc3)n2)n[nH]1` [Compound 7], the IC50 was 2730 nM.
For the compound `Cc1cc(C(=O)Nc2n[nH]c(OC(F)F)n2)nn1-c1ccccc1` [Compound 9], the IC50 came out at 629 nM.
Take `Cn1nc(C(=O)Nc2n[nH]c(-c3c(F)cccc3F)n2)cc1C1CC1` [Compound 12]: the IC50 amounted to 150 nM.
For `O=C(Nc1nc[nH]n1)c1nn(-c2ccccc2)c2c1CCC2` [Compound 17], the IC50 stood at 599 nM.
For the compound `O=C(Nc1n[nH]c(-c2ccc(F)cc2F)n1)c1nn(-c2ccccc2)c2c1CCCC2` [Compound 31], the IC50 was found to be 135 nM.
Take `COc1cccc(-c2nc(NC(=O)c3nn(-c4ccccc4)c4c3CCCC4)n[nH]2)c1` [Compound 32]: the IC50 came to 178 nM.

The same assay, now with this note: γ-thrombin activation of PAR4, human platelets; read-out: IC50, concentration-response curve (CRC).
Consider `Cc1nc(NC(=O)c2cc(-c3ccccc3)n(-c3ccccc3)n2)n[nH]1` [Compound 7], for which the IC50 was found to be 2300 nM.
